Laboratory results: article PMC9829398 (Plant Biotechnology Journal, 2022)
Like-named read-outs stand apart in the source and are kept apart here.

What was measured:
[1] = test system: FER cytoplasmic domain (FER‐CD); experiment: FER-CD kinase activity (autophosphorylation), high-throughput screening, Kinase-Lumi luminescent ATP consumption; type: biochemical, Arabidopsis thaliana; settings: in vitro autophosphorylation
tobacco = experiment: Growth of tobacco (shoot and root fresh weight, Day 25); settings: 5 μM irrigated twice
Ralstonia solanacearum [2] = type: in vivo, tobacco; settings: 5 μM irrigated twice two days after inoculation
Ralstonia solanacearum [3] = type: in vivo; settings: Arabidopsis seedlings pretreated with 5 μM, 4 days after inoculation
Ralstonia solanacearum [4] = type: in vivo, tomato; settings: roots pretreated twice with 3 mL of 5 μM
FRK1 = settings: 5 μM for 24 h, confocal microscopy
Ralstonia solanacearum [5] = type: in vivo, tobacco; settings: roots pretreated twice with 3 mL of 5 μM
[6] = test system: ROS in Col‐0 and fer‐4 roots; experiment: ROS detection in plant roots (H2DCF-DA fluorescence); settings: 5 μM for 15 min, vs DMSO and lapatinib
Meloidogyne incognita [7] = experiment: Established rice root-knot nematode disease (inhibitor applied after inoculation); type: in vivo; settings: in vivo
PER5 = settings: 5 μM for 24 h, confocal microscopy
Meloidogyne incognita [8] = experiment: Rice root-knot nematode disease, preventive root treatment; type: in vivo; settings: in vivo
PKA = test system: PKA; set-up: method as in Omura et al., [2018]; settings: ref Omura et al., [2018]; cited from earlier work
PKC = test system: PKC; set-up: method as in Omura et al., [2018]; settings: ref Omura et al., [2018]; cited from earlier work
[9] = test system: Arabidopsis Col‐0 and fer‐4 seedlings; experiment: Growth of Arabidopsis seedlings (root length, shoot fresh weight); settings: 5 μM for 3 days, vs ddH2O (mock) and lapatinib
THE1‐CD = experiment: THE1-CD kinase activity (autophosphorylation); type: biochemical, Arabidopsis thaliana; settings: 5 μM
ANJEA‐CD = experiment: ANJEA-CD kinase activity (autophosphorylation); type: biochemical, Arabidopsis thaliana; settings: 5 μM
HERK1‐CD = experiment: HERK1-CD kinase activity (autophosphorylation); type: biochemical, Arabidopsis thaliana; settings: 5 μM
FER‐CD [10] = target: T1, FER‐CD (Arabidopsis thaliana, UniProt Q9SCZ4); experiment: biochemical
T1 sequence (Q9SCZ4 469-895): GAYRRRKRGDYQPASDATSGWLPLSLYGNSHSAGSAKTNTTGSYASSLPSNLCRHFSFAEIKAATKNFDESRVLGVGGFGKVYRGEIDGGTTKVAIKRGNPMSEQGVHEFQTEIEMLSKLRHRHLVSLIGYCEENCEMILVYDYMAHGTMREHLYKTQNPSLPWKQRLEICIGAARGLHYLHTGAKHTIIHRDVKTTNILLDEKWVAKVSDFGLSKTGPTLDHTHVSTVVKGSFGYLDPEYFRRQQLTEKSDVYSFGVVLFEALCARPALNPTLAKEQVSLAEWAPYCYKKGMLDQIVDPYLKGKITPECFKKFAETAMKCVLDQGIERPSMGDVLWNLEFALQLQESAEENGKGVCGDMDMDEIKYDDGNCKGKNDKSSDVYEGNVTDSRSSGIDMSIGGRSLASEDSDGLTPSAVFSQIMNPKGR

NtFER‐CD = experiment: NtFER-CD kinase activity (autophosphorylation); type: biochemical, Nicotiana tabacum; settings: tobacco FER homologue
FER‐CD [11] = target: T1, FER‐CD; settings: read-out: Equilibrium dissociation constant (KD) of binding to FER-CD; MST, 25°C, 100 nM labelled FER-CD, means ± SEs (n = 3)

CN[C@@H]1C[C@H]2O[C@@](C)([C@@H]1OC)n1c3ccccc3c3c4c(c5c6ccccc6n2c5c31)C(=O)NC4 [Staurosporine]
Effect on FER kinase activity [1]: inhibited the kinase activity of FER
Growth (biomass) of tobacco shoots and roots (tobacco): did not observably affect the biomass
Effect on established tobacco bacterial wilt (Ralstonia solanacearum [2]): could not completely prevent the occurrence of the diseases or cure already diseased plants
Cotyledon bleaching caused by R. solanacearum (Ralstonia solanacearum [3]): effectively prevented the cotyledon bleaching
Control of tomato bacterial wilt (Ralstonia solanacearum [4]): alleviated soil‐borne diseases
Expression of FRK1 in roots (FRK1): observably enhanced the expression of FRK1
Root cell morphology (FRK1): caused expansion of the root cells
Control of tobacco bacterial wilt (Ralstonia solanacearum [5]): alleviated soil‐borne diseases
Production of ROS in Col-0 roots [6]: significantly increased the production of ROS
Effect on established rice root-knot nematode disease (Meloidogyne incognita [7]): could not completely prevent the occurrence of the diseases or cure already diseased plants
Expression of PER5 in roots (PER5): elevated the expression of PER5 to a certain extent
Control of rice root-knot nematode disease (Meloidogyne incognita [8]): alleviated soil‐borne diseases
Growth of roots and shoots of Arabidopsis Col-0 seedlings [9]: severely inhibited root and shoot growth

Cc1cc(Nc2ncc(F)c(NC3C4C=CC(C4)C3C(N)=O)n2)ccc1N1CCN(C)CC1 (stereo not drawn) [Cenisertib]
Effect on FER kinase activity [1]: inhibited the kinase activity of FER
Inhibition rate of THE1-CD kinase activity (THE1‐CD): higher than 88%
Inhibition rate of ANJEA-CD kinase activity (ANJEA‐CD): higher than 88%
Cotyledon bleaching caused by R. solanacearum (Ralstonia solanacearum [3]): turned white
Expression of FRK1 in roots (FRK1): increased the expression of FRK1
Production of ROS in Col-0 roots [6]: had no effect on ROS levels
Expression of PER5 in roots (PER5): did not affect the expression of PER5
Inhibition rate of HERK1-CD kinase activity (HERK1‐CD): higher than 88%
Kd (FER‐CD [10]): 1970 nM

CS(=O)(=O)CCNCc1ccc(-c2ccc3ncnc(Nc4ccc(OCc5cccc(F)c5)c(Cl)c4)c3c2)o1 [lapatinib]
Effect on FER kinase activity [1]: did not affect FER kinase activity
Inhibitory effect on NtFER-CD kinase activity (NtFER‐CD): ineffective
Cotyledon bleaching caused by R. solanacearum (Ralstonia solanacearum [3]): turned white
Expression of FRK1 in roots (FRK1): did not affect the expression levels
Expression of PER5 in roots (PER5): did not affect the expression levels

Nc1ncnc2c1ncn2[C@@H]1O[C@H](COP(=O)(O)OP(=O)(O)OP(=O)(O)O)[C@@H](O)[C@H]1O [ATP]
Kd (FER‐CD [11]): 18400 nM
